What was measured:
Type in all cases: cell-based
[1] = test system: Pseudomonas aeruginosa (PA); assay: MIC determination; details: Pseudomonas aeruginosa; PA; CAMH broth, 20 μM Apo-Transferrin, 37° C., 18 hours; read-out: Minimum Inhibitory Concentrations, PA
Experimental: (§1) Sterile technique was used throughout these experiments. Suspensions of organisms were removed from storage (−80° C.) and partially thawed. Partially thawed organisms (1 μL) were inoculated into 3 mL sterile LB Broth in a sterile culture tube and capped, then cultured at 37° C. with shaking for 4-5 hours until the optical density at 600 nm (OD600) was greater than 0.1 on a single beam spectrophotometer.
(§2) The concentration of organisms was adjusted to 0.08-0.1 OD600 (0.5 McFarland units) by dilution with sterile cation-adjusted Meuller-Hinton (CAMH) broth. The suspensions were used within 30 minutes of preparation.
(§3) A stock solution was made of each test compound by measuring 6.4 mg of the compound on an analytical balance and dissolving it in DMSO (1 mL) to get a transparent solution. The solutions were stored at −20° C. and thawed prior to use.
(§4) Sterile CAMH broth (200 μL) containing 20 μM Apo-Transferrin was pipetted into the first row of 8 columns of a sterile, round-bottomed, transparent, 96-well microplate using an 8-channel pipette equipped with sterile tips. One hundred μL was pipetted into the wells of the remaining 11 rows.
(§5) With an 8-channel pipette equipped with sterile tips, 100 μL of the first row solution was transferred to the second row and mixed. The process was repeated for the second to third rows and continued through row 11. One hundred μL from row 11 was removed and discarded so that all 12 rows contained 100 μL. Row 12 contained no compound and rows 1-11 contained 64, 32, 16, 8, 4, 2, 1, 0.5, 0.25, 0.125, […] of a given compound.
(§6) Inoculant suspensions (0.5 μL) were added to the 12 wells of each column. The plates were then covered and incubated at 37° C. overnight for 18 hours.
(§7) For each organism the MIC was determined by identifying the transparent well with the lowest test compound concentration.

[2] = test system: Pseudomonas aeruginosa PA (RR-1); assay: MIC determination; details: Pseudomonas aeruginosa; PA (RR-1); CAMH broth, 20 μM Apo-Transferrin, 37° C., 18 hours; read-out: Minimum Inhibitory Concentrations, PA (RR-1)
Experimental: as §1, §2, §3, §4, §5, §6, §7

[3] = test system: Pseudomonas aeruginosa PA (URMC-2); assay: MIC determination; details: Pseudomonas aeruginosa; PA (URMC-2); CAMH broth, 20 μM Apo-Transferrin, 37° C., 18 hours; read-out: Minimum Inhibitory Concentrations, PA (URMC-2)
Experimental: as §1, §2, §3, §4, §5, §6, §7

[4] = test system: Pseudomonas aeruginosa PA-RR-(G8062859); assay: MIC determination; details: Pseudomonas aeruginosa; PA-RR-(G8062859); CAMH broth, 20 μM Apo-Transferrin, 37° C., 18 hours; read-out: Minimum Inhibitory Concentrations, PA-RR-(G8062859)
Experimental: as §1, §2, §3, §4, §5, §6, §7

[5] = test system: Pseudomonas aeruginosa PA-RR-(purple Fre D); assay: MIC determination; details: Pseudomonas aeruginosa, CAMH broth, 20 μM Apo-Transferrin, 37° C., 18 hours, read-out: Minimum Inhibitory Concentrations, PA-RR-(purple Fre D)
Experimental: as §1, §2, §3, §4, §5, §6, §7

[6] = test system: Pseudomonas aeruginosa PA-RR-(G7294437); assay: MIC determination; details: Pseudomonas aeruginosa; PA-RR-(G7294437); CAMH broth, 20 μM Apo-Transferrin, 37° C., 18 hours; read-out: Minimum Inhibitory Concentrations, PA-RR-(G7294437)
Experimental: as §1, §2, §3, §4, §5, §6, §7

[7] = test system: Isogenic E. coli J58 strain carrying KPC-3; assay: MIC determination, isogenic E. coli strains; details: Escherichia coli, 18 h, read-out: Mimimum Inhibitory Concentrations, KPC-3
Outline: (§8)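 Strain: E. coli J53 electroporated with a pBC-SK(+) plasmid encoding the KPC enzyme, selected on ampicillin. Twofold dilutions ([…]) were made in CAMH broth containing 20 μM apo-transferrin and inoculated at 0.5 McFarland. After overnight (18 h) growth at 37 °C, MIC was read as the lowest concentration with no visible growth.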

[8] = test system: Isogenic E. coli J58 strain carrying KPC-2; assay: MIC determination, isogenic E. coli strains; details: Escherichia coli, 18 h, read-out: Mimimum Inhibitory Concentrations, KPC-2
Outline: as §8

[9] = test system: Isogenic E. coli J58 strain carrying SHV-1; assay: MIC determination, isogenic E. coli strains; details: Escherichia coli, 18 h, read-out: Mimimum Inhibitory Concentrations, SHV-1
Outline: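 MIC is the lowest compound concentration leaving a transparent well after overnight (18 h) incubation at 37 °C. The test strain was E. coli J53 expressing plasmid-borne SHV-1 beta-lactamase from pBC-SK(+), adjusted to 0.5 McFarland. Compounds were twofold serially diluted, starting at 64 μg/mL, in CAMH broth supplemented with 20 μM apo-transferrin.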

[10] = test system: Isogenic E. coli J58 strain carrying CTX-M-15; assay: MIC determination, isogenic E. coli strains; details: Escherichia coli, 18 h, read-out: Mimimum Inhibitory Concentrations, CTX-M-15
Outline: (§9)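 Isogenic E. coli J53 carrying plasmid-encoded CTX-M-14 or CTX-M-15 (ampicillin-selected), standardized to 0.08-0.1 OD600, incubated overnight (18 h, 37° C.) in CAMH broth plus 20 μM apo-transferrin over 2-fold compound dilutions starting at 64 μg/mL. Lowest concentration with no visible growth recorded as MIC.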

[11] = test system: Isogenic E. coli J58 strain carrying CTX-M-14; assay: MIC determination, isogenic E. coli strains; details: Escherichia coli, 18 h, read-out: Mimimum Inhibitory Concentrations, CTX-M-14
Outline: as §9

[12] = test system: Isogenic E. coli J58 strain carrying NDM-1; assay: MIC determination, isogenic E. coli strains; details: Escherichia coli, 18 h, read-out: Mimimum Inhibitory Concentrations, NDM-1
Outline: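 Broth microdilution was run in cation-adjusted Mueller-Hinton broth supplemented with 20 μM apo-transferrin, using a 64 μg/mL top concentration diluted twofold. The inoculum was NDM-1-expressing E. coli J53 (pBC-SK(+) plasmid) at 0.5 McFarland. After overnight incubation (18 h, 37° C), the lowest compound concentration preventing visible growth was recorded as the MIC.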

[13] = test system: Isogenic E. coli J58 strain carrying VIM-2; assay: MIC determination, isogenic E. coli strains; details: for MIC: Escherichia coli, 18 h, read-out: Mimimum Inhibitory Concentrations, VIM-2
Outline: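 Broth microdilution in cation-adjusted Mueller-Hinton with 20 μM apo-transferrin, compound serially halved from 64 μg/mL, read by eye after 18 h at 37 °C as lowest clear well. Inoculum: VIM-2-expressing E. coli J53 (pBC-SK(+) plasmid), adjusted to 0.5 McFarland.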

[14] = test system: E. coli J53 Alone; assay: MIC determination, isogenic E. coli strains; details: for MIC: Escherichia coli, J53ALONE, 18 h, read-out: Mimimum Inhibitory Concentrations, J53 Alone; for Mimimum Inhibitory Concentrations, J53 Alone: Table 4-2, CAMH broth, 20 μM Apo-Transferrin, 37° C., 18 hours
Outline: (§10)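 MIC read as the lowest compound level giving a transparent well after 18 h at 37° C. Strains: parent E. coli J53 and isogenic transformants expressing plasmid-borne (pBC-SK(+)) beta-lactamases such as DHA-1; inoculum 0.5 McFarland; CAMH broth plus 20 μM apo-transferrin; compound 64 μg/mL downward, 2-fold dilutions.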

[15] = test system: Isogenic E. coli J58 strain carrying TEM-26; assay: MIC determination, isogenic E. coli strains; details: Escherichia coli, 18 h, read-out: Mimimum Inhibitory Concentrations, TEM-26
Outline: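 E. coli J53 carried a pBC-SK(+) plasmid expressing TEM-26 β-lactamase. Compounds were serially halved from […] in CAMH broth containing 20 μM apo-transferrin, inoculated from a 0.5 McFarland culture and held overnight (18 h, 37° C); MIC read as the lowest concentration without visible growth.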

[16] = test system: Isogenic E. coli J58 strain carrying IMP-1; assay: MIC determination, isogenic E. coli strains; details: for MIC: Escherichia coli, 18 h, read-out: Mimimum Inhibitory Concentrations, IMP-1
Outline: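 Broth microdilution in cation-adjusted Mueller-Hinton broth with 20 μM apo-transferrin, compound serially diluted two-fold from 64 μg/mL, against E. coli J53 carrying plasmid-borne IMP-1. Inoculum adjusted to 0.5 McFarland; plates incubated 18 h at 37° C. MIC taken as lowest concentration giving a clear well.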

[17] = test system: Isogenic E. coli J58 strain carrying DHA-1; assay: MIC determination, isogenic E. coli strains; details: Escherichia coli, 18 h, read-out: Mimimum Inhibitory Concentrations, DHA-1
Outline: as §10

SMILES	MIC [1] [µg/mL]	MIC [2] [µg/mL]	MIC [3] [µg/mL]	MIC [4] [µg/mL]	MIC [5] [µg/mL]	MIC [6] [µg/mL]	MIC [7] [µg/mL]	MIC [8] [µg/mL]	MIC [9] [µg/mL]	MIC [10] [µg/mL]	MIC [11] [µg/mL]	MIC [12] [µg/mL]	MIC [13] [µg/mL]	MIC [14] [µg/mL]	Mimimum Inhibitory Concentrations, J53 Alone [14] [microgram/mL]	MIC [15] [µg/mL]	MIC [16] [µg/mL]	MIC [17] [µg/mL]	MICs for an E. coli strain carrying the gene for carbapenemase VIM-1, in words ([13]; review of Tables 4-1 and 4-2)	MICs for an E. coli strain carrying the gene for carbapenemase IMP-1, in words ([16]; review of Tables 4-1 and 4-2)
CC(C)(O/N=C(\C(=O)N[C@@H]1C(=O)N2C(C(=O)O)=C(C=Cc3ccc(C[N+]4(C)CCc5cc(O)c(O)cc5C4)cc3)CS[C@H]12)c1csc(N)n1)C(=O)O (mixture of isomers) [Compound 407, 2-(4-((E/Z)-2-((6R,7R)-7-((Z)-2-(2-aminothiazol-4-yl)-2-(((2-carboxypropan-2-yl)oxy)imino)acetamido)-2-carboxy-8-oxo-5-thia-1-azabicyclo[4.2.0]oct-2-en-3 yl)vinyl)benzyl)-6,7-dihydroxy-2-methyl-1,2,3,4-tetrahydroisoquinolin-2-ium]	2	4	4	0.06	0.06	0.03	4	8	0.5	64	1	> 64	0.5	0.13	0.13	1	32			
Cn1c[n+](Cc2ccc(C=CC3=C(C(=O)O)N4C(=O)[C@@H](NC(=O)/C(=N\OC(C)(C)C(=O)O)c5csc(N)n5)[C@H]4SC3)cc2)cc1C(=O)Nc1ccc(O)c(O)c1 (mixture of isomers) [Compound 411, 3-(4-((E/Z)-2-((6R,7R)-7-((Z)-2-(2-aminothiazol-4-yl)-2-(((2-carboxypropan-2-yl)oxy)imino)acetamido)-2-carboxy-8-oxo-5-thia-1-azabicyclo[4.2.0]oct-2-en-3-yl)vinyl)benzyl)-5-((3,4-dihydroxyphenyl)carbamoyl)-1-methyl-1H-imidazol-3-ium]	8	4	4	2	2	1	8	32	4	0.5	4	> 64	2	0.5	0.5	8	64	1		
CC(C)(O/N=C(\C(=O)N[C@@H]1C(=O)N2C(C(=O)O)=C(C=Cc3ccc(C[N+]4(C)CCc5c(Cl)c(O)c(O)c(Cl)c5C4)cc3)CS[C@H]12)c1csc(N)n1)C(=O)O (mixture of isomers) [Compound 429, 2-(4-((E/Z)-2-((6R,7R)-7-((Z)-2-(2-aminothiazol-4-yl)-2-(((2-carboxypropan-2-yl)oxy)imino)acetamido)-2-carboxy-8-oxo-5-thia-1-azabicyclo[4.2.0]oct-2-en-3-yl)vinyl)benzyl)-5,8 dichloro-6,7-dihydroxy-2-methyl-1,2,3,4-tetrahydroisoquinolin-2-ium]	0.25	0.25	0.5	0.5	2	≤ 0.06	1	4	0.25			> 64	≤ 0.06	≤ 0.06	≤0.06		≤ 0.06	0.25	low microgram/mL MICs	
CC(C)(O/N=C(\C(=O)N[C@@H]1C(=O)N2C(C(=O)O)=C(C=Cc3ccc(C[N+]4(C)CCc5ccc(O)c(O)c5C4)cc3)CS[C@H]12)c1csc(N)n1)C(=O)O (mixture of isomers) [Compound 442, 2-(4-((E/Z)-2-((6R,7R)-7-((Z)-2-(2-aminothiazol-4-yl)-2-(((2-carboxypropan-2-yl)oxy)imino)acetamido)-2-carboxy-8-oxo-5-thia-1-azabicyclo[4.2.0]oct-2-en-3 yl)vinyl)benzyl)-7,8-dihydroxy-2-methyl-1,2,3,4-tetrahydroisoquinolin-2-ium]	0.13	0.5	0.25	0.25	1	≤ 0.06	1	2	0.5			> 64		0.25	0.25	0.5				low microgram/mL MICs
